The IC50 is the concentration needed to halve the response being measured.

Here are results for 3 compounds from ChEMBL document CHEMBL5729737, “FGFR4 inhibitor, preparation method therefor, and applications thereof” (2023).

In test [1] the target is Fibroblast growth factor receptor 4 (Homo sapiens, UniProt P22455). Nature of the test: 5) 10 μL of EDTA and a test solution comprising labeled antibody were added, and the plate was incubated for 1 hour at room temperature. […] 7) The inhibition rates were calculated according to the fluorescence signal values.
For test [2], the target named is Fibroblast growth factor receptor 1 (Homo sapiens, UniProt P11362). As to the kind of experiment: Enzymologic Experiment of FGFR1: In this experiment, the inhibitory effect of the compounds on FGFR1 kinase activity was tested by a fluorescence resonance energy transfer (TR-FRET) method, and the half maximal inhibitory concentration (IC50) of the compounds on the FGFR1 kinase activity was determined. 1) 1˜5 μL of FGFR1 enzyme solution was added to a 384-well plate, and the final concentration of the enzyme was 0.1˜5 nM. 2) 1˜5 μL of diluted solution in gradient of the compound was added. 3) 1˜5 μL of a substrate mixture containing substrate polypeptide with a final concentration of 5˜50 nM and ATP with a final concentration of 10˜200 μM was added. 4) The mixture was incubated for 0.5˜3 hours at room temperature. 5) 10 μL of EDTA and a test solution comprising labeled antibody were added, and the plate was incubated for 1 hour at room temperature. 6) The fluorescence signal values of each plate were determined by a microplate reader at 665 nm.7) The inhibition rates were calculated according to the fluorescence signal values.
Chain of Fibroblast growth factor receptor 1 (P11362 whole entry): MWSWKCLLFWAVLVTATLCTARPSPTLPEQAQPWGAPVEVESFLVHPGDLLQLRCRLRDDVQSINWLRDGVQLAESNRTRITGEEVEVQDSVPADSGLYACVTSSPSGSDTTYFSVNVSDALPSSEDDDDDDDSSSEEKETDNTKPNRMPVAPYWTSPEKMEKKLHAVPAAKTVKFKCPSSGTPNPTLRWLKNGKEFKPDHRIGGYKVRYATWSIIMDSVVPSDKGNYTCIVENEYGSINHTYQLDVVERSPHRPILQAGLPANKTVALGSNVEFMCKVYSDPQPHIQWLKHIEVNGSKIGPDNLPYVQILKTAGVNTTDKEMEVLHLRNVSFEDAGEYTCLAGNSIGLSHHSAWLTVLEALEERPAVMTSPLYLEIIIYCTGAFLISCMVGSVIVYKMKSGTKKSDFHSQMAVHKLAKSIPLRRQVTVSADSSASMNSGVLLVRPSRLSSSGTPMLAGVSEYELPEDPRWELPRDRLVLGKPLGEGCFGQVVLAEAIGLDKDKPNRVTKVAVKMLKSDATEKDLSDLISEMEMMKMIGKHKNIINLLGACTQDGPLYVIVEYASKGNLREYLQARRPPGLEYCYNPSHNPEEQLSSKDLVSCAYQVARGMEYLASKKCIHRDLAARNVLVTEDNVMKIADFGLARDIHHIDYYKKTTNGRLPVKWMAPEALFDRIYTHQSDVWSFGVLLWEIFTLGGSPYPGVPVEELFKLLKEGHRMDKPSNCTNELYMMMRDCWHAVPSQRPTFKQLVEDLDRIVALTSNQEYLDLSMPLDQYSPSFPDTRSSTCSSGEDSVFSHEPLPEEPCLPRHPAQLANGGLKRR

Chain of Fibroblast growth factor receptor 4 (P22455 whole entry): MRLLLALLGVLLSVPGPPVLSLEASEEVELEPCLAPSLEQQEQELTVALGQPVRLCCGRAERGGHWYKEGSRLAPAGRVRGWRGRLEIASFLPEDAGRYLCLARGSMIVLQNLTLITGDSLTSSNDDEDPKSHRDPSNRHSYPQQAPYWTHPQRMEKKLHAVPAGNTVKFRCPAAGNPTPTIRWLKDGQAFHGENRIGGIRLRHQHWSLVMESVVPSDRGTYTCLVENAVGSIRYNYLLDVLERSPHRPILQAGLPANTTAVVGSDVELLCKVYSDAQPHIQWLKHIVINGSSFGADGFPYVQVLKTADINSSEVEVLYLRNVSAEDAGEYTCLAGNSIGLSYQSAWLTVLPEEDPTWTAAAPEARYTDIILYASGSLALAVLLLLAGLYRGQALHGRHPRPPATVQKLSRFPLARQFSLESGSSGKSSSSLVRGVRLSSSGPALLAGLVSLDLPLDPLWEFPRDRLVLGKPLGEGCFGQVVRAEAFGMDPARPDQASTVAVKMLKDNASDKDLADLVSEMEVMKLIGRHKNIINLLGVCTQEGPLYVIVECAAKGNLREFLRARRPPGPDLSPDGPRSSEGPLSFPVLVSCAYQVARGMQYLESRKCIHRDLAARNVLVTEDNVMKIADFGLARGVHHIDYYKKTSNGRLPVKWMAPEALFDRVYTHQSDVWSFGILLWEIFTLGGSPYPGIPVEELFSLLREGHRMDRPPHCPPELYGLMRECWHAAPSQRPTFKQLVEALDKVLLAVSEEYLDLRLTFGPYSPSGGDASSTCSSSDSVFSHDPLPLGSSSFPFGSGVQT

As to `COC[C@@H](C)Nc1cc(NC(=O)N2CCCc3cc(CN4CCCCOC4=O)c(C=O)nc32)ncc1C#N`, the IC50 in test [1] is 0.00096 µM.
Regarding `CO[C@@H]1CCCC1Nc1cc(NC(=O)N2CCCc3cc(CN4CCOCC4=O)c(C=O)nc32)ncc1C#N` (stereo partly drawn), in test [2], the IC50 was > 10 µM.
For the compound `COCCNc1cc(NC(=O)N2CCCc3cc(CN4CCCCOC4=O)c(C=O)nc32)ncc1C#N`, the IC50 in test [2] was > 10 µM.
